Like-named read-outs stand apart in the source and are kept apart here.

What all share (assay type): biochemical
One test deals with T1, HIPK1(h) (Homo sapiens, UniProt Q86Z02).
T1 construct: purchased Merck Millipore (KinaseProfiler service)
The test is described as follows: HIPK1 KinaseProfiler radiometric protein kinase assay. The following applies: 45 μM ATP, 40 minutes at room temperature. How it is done: (§1) In vitro essays were performed by the company Merck Millipore in their KinaseProfiler radiometric protein kinase assay as paid commercial service. The compounds IC50 values for inhibition of individual protein kinases were determined. Dose-response curves were plotted from inhibition data generated, each in duplicate, from 10 point serial dilutions of inhibitory compounds. Concentration of compound was plotted against % kinase activity. To generate IC50 values, the dose-response curves were fitted to a standard sigmoidal curve and IC50 values were derived by standard nonlinear regression analysis.
(§2) All tested compounds were prepared in 100% DMSO to final assay concentrations either 0.5 mM (for the concentration row A, see below) or 0.05 mM (for the concentration row B). This working stock of the compound was added to the assay well as the first component in the reaction, followed by the remaining components as detailed below. The stock solution was added to the individual assay wells in such amounts that the concentrations of the compound were either in the row A (0.001 μM, 0.003 μM, 0.01 μM, 0.03 μM, 0.1 μM, 0.3 μM, 1.0 μM, 3.0 μM, and 10.0 μM) or in the row B (0.0001 μM, 0.0003 μM, 0.001 μM, 0.003 μM, 0.01 μM, 0.03 μM, 0.1 μM, 0.3 μM, and 1.0 μM). There was no pre-incubation step between the compound and the kinase prior to initiation of the reaction.
(§3) The positive control wells contained all components of the reaction, except the compound of interest; however, DMSO (at a final concentration of 2%) was included in these wells to control for solvent effects. The blank wells contained all components of the reaction, with staurosporine as a reference inhibitor replacing the compound of interest. This abolished kinase activity and established the base-line (0% kinase activity remaining).
HIPK1(h) was diluted in the buffer (20 mM MOPS, 1 mM EDTA, 0.01% Brij-35, 5% Glycerol, 0.1% β-mercaptoethanol, 1 mg/mL BSAs) to the concentration of 1.01 mg/mL prior to addition to the reaction mix.
(§4) The above stock solution of HIPK1(h) was added to a mixture containing 8 mM MOPS pH 7.0, 0.2 mM EDTA, and 0.33 mg/mL myelin basic protein in such amount that the resulting concentration of HIPK1(h) was 4.7 nM. This mixture was added to the stock solution of the tested compound. The reaction was initiated by the addition of the MgATP mix in such amount that the resulting concentration of Mg acetate in the reaction mixture was 10 mM and [γ-^33P-ATP] (specific activity approx. 500 cpm/pmol) was 45 μM. After incubation for 40 minutes at room temperature, the reaction was stopped by the addition of 3% phosphoric acid solution. 10 μL of the reaction was then spotted onto a P30 filtermat and washed three times for 5 minutes in 75 mM phosphoric acid and once in methanol prior to drying and scintillation counting.

For a further test, the target named is T2, CLK2 (h) (Homo sapiens, UniProt P49760).
T2 construct: purchased Merck Millipore (KinaseProfiler service)
T2 sequence (P49760 whole entry): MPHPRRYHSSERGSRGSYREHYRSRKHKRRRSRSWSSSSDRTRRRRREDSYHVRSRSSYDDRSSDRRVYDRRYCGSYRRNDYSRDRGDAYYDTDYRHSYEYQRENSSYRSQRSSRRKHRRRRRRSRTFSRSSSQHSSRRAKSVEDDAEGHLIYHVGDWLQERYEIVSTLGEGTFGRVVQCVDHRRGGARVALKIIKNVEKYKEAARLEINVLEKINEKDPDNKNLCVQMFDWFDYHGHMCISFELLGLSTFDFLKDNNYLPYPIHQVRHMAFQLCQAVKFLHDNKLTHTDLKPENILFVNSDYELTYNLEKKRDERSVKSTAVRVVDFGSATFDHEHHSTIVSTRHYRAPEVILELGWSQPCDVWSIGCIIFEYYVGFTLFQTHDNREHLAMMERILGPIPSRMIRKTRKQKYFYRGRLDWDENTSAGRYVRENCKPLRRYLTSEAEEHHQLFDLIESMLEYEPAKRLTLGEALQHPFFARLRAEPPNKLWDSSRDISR
The test is described as follows: CLK2 KinaseProfiler radiometric protein kinase assay. How it is done: as §1, §2, §3
CLK2 (h) was diluted in the buffer (20 mM MOPS (3-(N-morpholino)propanesulfonic acid), 1 mM EDTA (ethylendiaminotetraacetic acid), 0.01% Brij-35 (detergent), 5% Glycerol, 0.1% β-mercaptoethanol, 1 mg/mL BSAs) to the concentration of 1.01 mg/mL prior to addition to the reaction mix.
as §4, with “CLK2(h)” for “HIPK1(h)”, “20 μM […](p) EDEEE” for “0.33 mg/mL myelin basic protein”, “2.1” for “4.7”, “15” for “45”

A further test deals with T3, DYRK2 (Homo sapiens, UniProt Q92630).
T3 construct: purchased Merck Millipore (KinaseProfiler service)
T3 sequence (Q92630 1-601): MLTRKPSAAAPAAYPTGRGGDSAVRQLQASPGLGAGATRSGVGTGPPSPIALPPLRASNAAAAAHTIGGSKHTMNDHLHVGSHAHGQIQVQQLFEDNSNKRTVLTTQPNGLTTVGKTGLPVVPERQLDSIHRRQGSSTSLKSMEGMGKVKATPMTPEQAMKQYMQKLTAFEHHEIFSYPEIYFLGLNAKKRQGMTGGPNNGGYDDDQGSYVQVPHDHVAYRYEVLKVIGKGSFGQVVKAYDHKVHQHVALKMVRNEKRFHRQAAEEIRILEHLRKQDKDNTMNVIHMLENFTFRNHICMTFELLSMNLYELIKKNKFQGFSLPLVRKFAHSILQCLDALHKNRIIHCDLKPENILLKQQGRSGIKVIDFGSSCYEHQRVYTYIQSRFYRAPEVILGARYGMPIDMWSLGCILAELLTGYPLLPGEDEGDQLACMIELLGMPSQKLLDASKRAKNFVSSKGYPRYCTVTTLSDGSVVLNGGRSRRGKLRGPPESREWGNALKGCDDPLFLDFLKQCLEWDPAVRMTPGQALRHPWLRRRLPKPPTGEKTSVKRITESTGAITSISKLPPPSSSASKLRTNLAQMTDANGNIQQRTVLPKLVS
The test is described as follows: DYRK2 KinaseProfiler radiometric protein kinase assay. On the procedure: as §1, §2, §3

The target in the next test is T4, HIPK3(h) (Homo sapiens, UniProt Q9H422).
T4 construct: purchased Merck Millipore (KinaseProfiler service)
T4 sequence (Q9H422 whole entry): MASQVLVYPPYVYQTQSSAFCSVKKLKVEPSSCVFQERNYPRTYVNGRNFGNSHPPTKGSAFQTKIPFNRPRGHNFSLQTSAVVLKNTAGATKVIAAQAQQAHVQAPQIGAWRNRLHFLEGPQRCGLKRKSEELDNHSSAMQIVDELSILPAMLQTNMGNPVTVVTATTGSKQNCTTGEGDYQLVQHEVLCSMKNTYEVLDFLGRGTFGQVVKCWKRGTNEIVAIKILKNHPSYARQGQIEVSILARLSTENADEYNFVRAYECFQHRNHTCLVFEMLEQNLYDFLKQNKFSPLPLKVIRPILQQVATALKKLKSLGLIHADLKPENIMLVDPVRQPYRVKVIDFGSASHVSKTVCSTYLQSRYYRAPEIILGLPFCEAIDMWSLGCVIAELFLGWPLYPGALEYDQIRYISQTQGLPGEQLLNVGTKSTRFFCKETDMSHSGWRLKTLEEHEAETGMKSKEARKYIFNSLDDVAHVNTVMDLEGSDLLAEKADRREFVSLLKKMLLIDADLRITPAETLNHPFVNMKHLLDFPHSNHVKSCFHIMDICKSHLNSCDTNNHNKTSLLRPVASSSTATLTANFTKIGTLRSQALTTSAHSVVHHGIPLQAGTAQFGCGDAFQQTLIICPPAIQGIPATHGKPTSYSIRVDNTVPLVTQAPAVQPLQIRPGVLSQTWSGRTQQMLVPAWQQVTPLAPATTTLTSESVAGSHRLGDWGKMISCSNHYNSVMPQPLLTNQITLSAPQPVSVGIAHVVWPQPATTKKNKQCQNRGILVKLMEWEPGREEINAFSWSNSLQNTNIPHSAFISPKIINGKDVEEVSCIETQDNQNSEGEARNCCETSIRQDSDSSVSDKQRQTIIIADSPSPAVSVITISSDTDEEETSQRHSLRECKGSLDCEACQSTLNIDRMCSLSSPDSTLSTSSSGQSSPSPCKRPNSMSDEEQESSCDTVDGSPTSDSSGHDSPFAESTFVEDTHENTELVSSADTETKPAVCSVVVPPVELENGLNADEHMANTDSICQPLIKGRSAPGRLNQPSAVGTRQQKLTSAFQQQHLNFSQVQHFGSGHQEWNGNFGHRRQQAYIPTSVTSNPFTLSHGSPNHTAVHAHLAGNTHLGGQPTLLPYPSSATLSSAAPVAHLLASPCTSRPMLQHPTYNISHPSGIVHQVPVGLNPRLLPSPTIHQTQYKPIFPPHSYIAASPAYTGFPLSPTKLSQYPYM
The experiment in a line: HIPK3 KinaseProfiler radiometric protein kinase assay. The note with it: 15 μM ATP, 40 minutes at room temperature. On the procedure: as §1, §2, §3
HIPK3(h) was diluted in the buffer (20 mM MOPS, 1 mM EDTA, 0.01% Brij-35, 5% Glycerol, 0.1% β-mercaptoethanol, 1 mg/mL BSAs) to the concentration of 1.01 mg/mL prior to addition to the reaction mix.
as §4, with “HIPK3(h)” for “HIPK1(h)”, “1.0” for “0.33”, “6.4” for “4.7”, “15” for “45”, “10 μL of the reaction was then spotted onto a P30 filtermat and washed three times for 5 minutes in 75 mM phosphoric acid and once in methanol prior to drying and scintillation counting.” left out

T1 sequence (Q86Z02 whole entry): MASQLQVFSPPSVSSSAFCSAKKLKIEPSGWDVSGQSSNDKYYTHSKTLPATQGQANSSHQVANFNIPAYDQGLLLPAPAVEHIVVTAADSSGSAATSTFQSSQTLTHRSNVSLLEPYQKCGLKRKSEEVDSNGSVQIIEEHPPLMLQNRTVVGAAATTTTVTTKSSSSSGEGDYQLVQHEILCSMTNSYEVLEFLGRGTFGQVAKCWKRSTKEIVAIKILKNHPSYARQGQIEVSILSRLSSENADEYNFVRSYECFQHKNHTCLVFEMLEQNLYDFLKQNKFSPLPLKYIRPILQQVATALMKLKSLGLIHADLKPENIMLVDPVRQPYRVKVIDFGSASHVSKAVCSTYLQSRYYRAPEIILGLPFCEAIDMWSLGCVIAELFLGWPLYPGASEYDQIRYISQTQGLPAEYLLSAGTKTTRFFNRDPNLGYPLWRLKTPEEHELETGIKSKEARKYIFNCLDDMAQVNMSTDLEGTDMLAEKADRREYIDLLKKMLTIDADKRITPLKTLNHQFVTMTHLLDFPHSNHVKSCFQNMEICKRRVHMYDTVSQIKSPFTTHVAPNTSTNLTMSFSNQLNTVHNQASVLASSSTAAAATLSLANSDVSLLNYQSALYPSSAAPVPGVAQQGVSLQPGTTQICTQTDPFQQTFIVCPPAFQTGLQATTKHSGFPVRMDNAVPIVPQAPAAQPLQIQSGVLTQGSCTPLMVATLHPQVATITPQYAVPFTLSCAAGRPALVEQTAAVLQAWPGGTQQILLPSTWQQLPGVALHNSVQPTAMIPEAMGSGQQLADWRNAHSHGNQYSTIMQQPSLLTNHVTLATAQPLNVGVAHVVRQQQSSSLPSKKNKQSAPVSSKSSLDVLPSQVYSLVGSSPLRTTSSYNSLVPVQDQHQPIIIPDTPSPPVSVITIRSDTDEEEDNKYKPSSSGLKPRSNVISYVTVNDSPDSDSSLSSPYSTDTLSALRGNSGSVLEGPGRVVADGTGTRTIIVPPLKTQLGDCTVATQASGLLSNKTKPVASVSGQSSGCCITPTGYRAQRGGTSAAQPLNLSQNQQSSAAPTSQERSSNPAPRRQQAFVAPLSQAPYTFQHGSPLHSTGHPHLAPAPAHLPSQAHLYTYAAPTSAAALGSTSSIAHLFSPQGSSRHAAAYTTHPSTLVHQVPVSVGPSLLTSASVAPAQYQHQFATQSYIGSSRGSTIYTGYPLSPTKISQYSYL

For the molecule `Cn1cc(-c2ccc3occ(-c4ccccc4)c3n2)cn1` [Preparative Example 6A], the IC50 against HIPK1(h) was less than 1000 nM; at CLK2 (h) (radiometric, 15 μM ATP, 40 minutes at room temperature, read-out: CLK2 IC50), less than 1000 nM; at DYRK2, less than 5000 nM; on HIPK3(h) it was less than 5000 nM.

On to `c1ccc(-c2coc3ccc(-c4cn[nH]c4)nc23)cc1` [Preparative Example 9], for which the IC50 at HIPK1(h) was less than 100 nM; against CLK2 (h), less than 100 nM; against DYRK2, less than 5000 nM; against HIPK3(h) it was less than 1000 nM.

As a reminder, the IC50 is the concentration at which inhibition is half-maximal.

Values taken from patent publication US9902733B2, “Furopyridines as inhibitors of protein kinases” (MASARYKOVA UNIVERZITA, priority 2014, dated 2018).
